We go through four compounds from PMC6857134, “Antimicrobial functional divergence of the cecropin antibacterial peptide gene family in Musca domestica” (Parasites & Vectors, 2019).

Converted amounts (≈) assume the structure as drawn. Residues, ends and D or L forms follow the SMILES beside them. No end group written: not given here.

The test system of assay [1] is A. baumannii 4367992. Kind of assay: MIC by broth microdilution. It is filed as cell-based, Acinetobacter baumannii. Particulars: 37 °C, 24 h; for MIC / inhibitory concentration against A. baumannii: strain not given, broth microdilution. As to the method:
(§1) Evaluation of the MIC of synthetic peptides was performed using broth microdilution techniques according to the guidelines of the Clinical and Laboratory Standards Association (CLSI). The antimicrobial spectrum and biological activity of the above chemically synthesized peptides were tested against six Gram-positive bacteria, five Gram-negative bacteria and one fungus. Overnight cultures of the 11 bacteria were grown in MHB at 37 °C and C. albicans was grown in Sabouraud dextrose broth (SDB) medium (Sangon, Shanghai, China) and cultured at 37 °C to mid-log phase and diluted to 1.5 × 10^6 CFU/ml. In a polypropylene 96-well round-bottom plate, 50 μl of bacteria was mixed with 50 μl of designed synthetic peptide dissolved in sterile distilled water (final concentration of 0–64 μM). Sterile distilled water was used as a negative control and polymyxin B dissolved in sterile distilled water as a positive control.

In assay [2] the test system is A. baumannii (4367992). Kind of assay: Time-killing assay (growth curve, absorbance at 600 nm). It counts as cell-based, Acinetobacter baumannii. Here is the method: The effect of peptides on the growth of an A. baumannii (4367992) isolate was examined as follows: the strain was cultured in nutrient agar for 18–20 h and adjusted to 0.5 McFarland units with MHB medium, then diluted 1:20 in MHB medium. Each peptide was added to one culture tube at a final concentration of 1× MIC or 2× MIC. […] The cultures were incubated for 24 h at 37 °C with shaking at 200× rpm, and the absorbance at 600 nm of 1 ml aliquots was recorded at 0.5–2 h intervals.

In assay [3] the test system is extensive-drug-resistant A. baumannii (4367992). Kind of assay: Leakage of 260 nm absorbing material. It counts as cell-based, Acinetobacter baumannii. Particulars: 0.5× MIC and 2× MIC, 0–8 h, 37 °C, 1 × 10^6 CFU/ml; three independent experiments. Here is the method: The reference method was slightly modified, taking the logarithmic growth phase of extensive-drug-resistant A. baumannii (4367992) as detected bacteria. Five millilitres of bacterial suspension (1 × 10^6 CFU/ml) was treated with different concentrations of antimicrobial peptides (0.5× MIC, 2× MIC). After being placed at 37 °C and 150× rpm, aliquots (0.5 ml) of the treated bacterial suspension were removed at different intervals (0, 0.5, 1, 2, 4, 6 and 8 h). The aliquots were centrifuged (1000× rpm, 5 min) and the absorbance of supernatant was measured at 260 nm, using PBS as the control.

Assay [4] deals with tested microorganisms (Gram-positive bacteria, Gram-negative bacteria, one fungus). The assay can be described thus: MIC by broth microdilution, summary over the panel of tested microorganisms. It counts as cell-based. The note with it: at concentrations up to 32 μM. As to the method:
as §1
A general note: Broth dilution looks for growth in wells or tubes with falling amounts of substance.

Take “GWLKKVGKKIERVGQHTRDATIQGLGVAQQAANVVATVKGK [Cec3]”: in assay [1], the “MIC / inhibitory concentration against A. baumannii” value turned out to be 32 µM.

Consider “GWLKKIGKKIERVGQNTRDATIQAIGVAQQAANVAATLKGK [Cec4]”, for which, in assay [1], the “MIC / inhibitory concentration against A. baumannii” value was found to be 0.5 µM. Also, the “time-kill kinetics, killing pattern” value in assay [2] (A. baumannii in the logarithmic growth phase) is “rapid and concentration-dependent killing pattern”. Besides, the “leakage of 260 nm absorbing material (maximum absorbance at 260 nm)” value in assay [3] is recorded as “dose-dependent increase”.

As for “GWLKDFGRRIERVGQHTRDATIQAIGVAQQATDVAATLKGK [Cec9]”, the “inhibitory effect on the other experimental strains (other than E. coli)” value in assay [4] is reported as “no inhibitory effect”.

For the compound `CC[C@H](C)CCCCC(=O)N[C@@H](CCN)C(=O)N[C@H](C(=O)N[C@@H](CCN)C(=O)N[C@H]1CCNC(=O)[C@H]([C@@H](C)O)NC(=O)[C@H](CCN)NC(=O)[C@H](CCN)NC(=O)[C@H](CC(C)C)NC(=O)[C@@H](Cc2ccccc2)NC(=O)[C@H](CCN)NC1=O)[C@@H](C)O` [polymyxin B, reference compound] (HELM PEPTIDE1{[CC[C@H](C)CCCCC(=O)[*:2]].[Dab].T.[Dab].[Dab].[Dab].[dF].L.[Dab].[Dab].T}$PEPTIDE1,PEPTIDE1,5:R3-11:R2$$$V2.0; N-terminus assumed; bridges inferred), in assay [1] (A. baumannii 4367992 (extensive-drug-resistant isolate), broth microdilution (CLSI), MHB, visual growth), the MIC amounted to 1.05 µM (≈ 1.26 µg/mL). The “duration of antibacterial effect on A. baumannii” value in assay [2] (Cec4 at 1× MIC and 2× MIC, polymyxin B at 1× MIC (1.05 μM), MHB, 37 °C, 200 rpm, absorbance 600 nm over 24 h, three independent experiments) is ≤ 12 h.

A word on the MIC: it is the smallest concentration in the dilution series that meets the test's criterion for growth inhibition.
